The record followed here is paper PMC11032350, “SMS121, a new inhibitor of CD36, impairs fatty acid uptake and viability of acute myeloid leukemia” (Scientific Reports, 2024).

The test has as its target T1, CD36 (Homo sapiens, UniProt P16671).
T1 construct: commercial biotinylated His, Avitag human CD36, captured on streptavidin CAP chip
Kind of test: SPR (Biacore […]), steady-state […] fit. In kind it is binding. A general note: Surface plasmon resonance follows binding to a sensor surface in real time, without labels.

T1 sequence (P16671 30-439 limits assumed): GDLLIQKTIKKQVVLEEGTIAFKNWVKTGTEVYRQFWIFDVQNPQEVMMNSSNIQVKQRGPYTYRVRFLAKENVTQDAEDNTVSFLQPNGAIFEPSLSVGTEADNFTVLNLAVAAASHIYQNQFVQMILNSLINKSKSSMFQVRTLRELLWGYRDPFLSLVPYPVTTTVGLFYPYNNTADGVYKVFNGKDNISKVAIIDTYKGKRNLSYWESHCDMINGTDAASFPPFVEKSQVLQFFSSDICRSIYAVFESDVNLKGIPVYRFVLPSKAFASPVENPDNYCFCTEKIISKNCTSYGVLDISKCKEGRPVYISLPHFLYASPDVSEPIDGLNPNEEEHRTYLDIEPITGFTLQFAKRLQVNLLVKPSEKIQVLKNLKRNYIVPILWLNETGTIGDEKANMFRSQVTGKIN

In turn, `COc1cc(/C=C/C(=O)c2ccc(N(C)C)cc2)ccc1OCC(=O)O` [SMS121, (E)-2-(4-(3-(4-(dimethylamino)phenyl)-3-oxoprop-1-en-1-yl)-2-methoxyphenoxy) acetic acid] gave a Kd of around 5 µM.

For orientation: Kd means the constant that tells how readily two partners part at equilibrium.
